Drawing on US12351580B2, “NLRP3 modulators” (Innate Tumor Immunity, Inc., priority 2017, dated 2025), this text covers EC50 for 28 compounds.

In one assay the target is T1, TLR7 (Homo sapiens, UniProt Q9NYK1).
T1 construct: host or cells: HEK-Blue cells (human HEK) co-expressing TLR7 and an NF-kB/AP1-inducible SEAP reporter
T1 sequence (Q9NYK1 27-1049): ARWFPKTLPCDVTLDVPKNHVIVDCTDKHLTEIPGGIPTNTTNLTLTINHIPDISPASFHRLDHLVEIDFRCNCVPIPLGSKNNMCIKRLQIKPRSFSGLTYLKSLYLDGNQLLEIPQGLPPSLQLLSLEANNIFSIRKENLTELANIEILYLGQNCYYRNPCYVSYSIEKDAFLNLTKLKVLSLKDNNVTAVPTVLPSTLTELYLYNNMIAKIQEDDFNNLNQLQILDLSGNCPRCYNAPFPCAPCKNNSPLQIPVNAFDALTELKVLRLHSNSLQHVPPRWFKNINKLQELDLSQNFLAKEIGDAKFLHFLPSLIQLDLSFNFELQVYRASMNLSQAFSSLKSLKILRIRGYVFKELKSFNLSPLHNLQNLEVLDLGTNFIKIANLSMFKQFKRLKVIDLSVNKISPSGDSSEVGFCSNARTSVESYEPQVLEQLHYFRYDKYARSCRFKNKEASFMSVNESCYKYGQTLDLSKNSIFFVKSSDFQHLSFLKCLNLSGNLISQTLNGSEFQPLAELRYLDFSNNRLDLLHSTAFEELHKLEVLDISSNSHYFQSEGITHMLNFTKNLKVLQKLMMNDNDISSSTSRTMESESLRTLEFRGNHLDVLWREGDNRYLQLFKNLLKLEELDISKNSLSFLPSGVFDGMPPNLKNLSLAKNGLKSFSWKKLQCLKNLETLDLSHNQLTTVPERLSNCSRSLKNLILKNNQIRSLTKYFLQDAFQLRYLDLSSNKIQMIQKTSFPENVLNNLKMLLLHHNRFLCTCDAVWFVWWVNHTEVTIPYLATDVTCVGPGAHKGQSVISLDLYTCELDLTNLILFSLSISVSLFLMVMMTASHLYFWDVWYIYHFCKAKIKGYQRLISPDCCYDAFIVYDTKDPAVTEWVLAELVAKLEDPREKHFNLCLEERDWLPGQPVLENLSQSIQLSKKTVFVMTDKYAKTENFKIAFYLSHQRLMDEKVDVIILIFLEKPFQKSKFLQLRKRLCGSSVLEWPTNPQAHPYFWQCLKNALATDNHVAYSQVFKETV
The experiment in a line: In vitro human TLR7 binding reporter assay (HEK-Blue, NF-kB/AP1-inducible SEAP). The settings on record: activity range symbols. The class given is cell-based. The procedure, abridged: (§1)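 Reporter cells are plated at 15,000 per well and rested 24 h. Next day, test compounds or DMSO are dispensed, followed by 18 h incubation at 37 °C, 5% CO2.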

Another assay deals with T2, TLR8 (Homo sapiens, UniProt Q9NR97).
T2 construct: host or cells: HEK-Blue cells (human HEK) co-expressing TLR8 and an NF-kB/AP1-inducible SEAP reporter
T2 sequence (Q9NR97 27-1041): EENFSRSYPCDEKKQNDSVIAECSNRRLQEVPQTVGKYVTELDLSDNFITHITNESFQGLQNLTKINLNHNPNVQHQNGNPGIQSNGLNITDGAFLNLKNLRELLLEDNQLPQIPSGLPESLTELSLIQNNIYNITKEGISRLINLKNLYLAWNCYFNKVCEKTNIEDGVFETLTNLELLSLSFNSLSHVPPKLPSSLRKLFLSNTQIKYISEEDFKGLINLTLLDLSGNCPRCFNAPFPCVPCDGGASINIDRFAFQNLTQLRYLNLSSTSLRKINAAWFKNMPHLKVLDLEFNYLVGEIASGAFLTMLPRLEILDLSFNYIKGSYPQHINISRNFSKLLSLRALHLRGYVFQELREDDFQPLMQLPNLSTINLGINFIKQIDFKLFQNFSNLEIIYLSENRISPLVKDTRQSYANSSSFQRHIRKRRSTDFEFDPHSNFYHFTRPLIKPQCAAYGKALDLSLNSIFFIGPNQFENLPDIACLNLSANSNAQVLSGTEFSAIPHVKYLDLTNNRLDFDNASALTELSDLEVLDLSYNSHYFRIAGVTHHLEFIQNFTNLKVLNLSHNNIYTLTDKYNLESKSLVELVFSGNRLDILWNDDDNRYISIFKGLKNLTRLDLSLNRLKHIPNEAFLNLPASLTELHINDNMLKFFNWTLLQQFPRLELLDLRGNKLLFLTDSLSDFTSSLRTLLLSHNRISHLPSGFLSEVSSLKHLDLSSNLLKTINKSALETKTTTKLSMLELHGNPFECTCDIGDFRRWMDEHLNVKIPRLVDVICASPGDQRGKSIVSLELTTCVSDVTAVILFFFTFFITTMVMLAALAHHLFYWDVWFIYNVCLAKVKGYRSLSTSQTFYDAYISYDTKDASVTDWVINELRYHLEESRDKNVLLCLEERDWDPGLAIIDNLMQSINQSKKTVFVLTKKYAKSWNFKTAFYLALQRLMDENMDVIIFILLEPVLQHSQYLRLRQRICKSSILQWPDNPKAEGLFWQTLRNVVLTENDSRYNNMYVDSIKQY
The experiment in a line: In vitro human TLR8 binding reporter assay (HEK-Blue, NF-kB/AP1-inducible SEAP). The settings on record: activity range symbols. Type of assay: cell-based. The procedure, abridged:
as §1

Structures are written as SMILES.

Turning to `CCC(=O)NCc1nc2c(N)nc3cc(-c4cc[nH]n4)ccc3c2[nH]1` [Compound 111], the EC50 at TLR7 and at TLR8 was greater than 100 µM in each case.
Regarding `CCN(Cc1nc2c(N)nc3cc(-c4cc[nH]n4)ccc3c2[nH]1)C(=O)c1nccs1` [Compound 114], the EC50 at TLR7 and on TLR8 was greater than 100 µM in each case.
As to `CN(Cc1nc2c(N)nc3cc(-c4cc[nH]n4)ccc3c2[nH]1)S(C)(=O)=O` [Compound 115], the EC50 on TLR7 and at TLR8 was greater than 100 µM throughout.
Turning to `CC(c1nc2c(N)nc3cc(-n4cccn4)ccc3c2[nH]1)N1CCCC1=O` (centres unmarked) [Compound 117], the EC50 on TLR7 is 20 to 100 µM; at TLR8, greater than 100 µM.
As for `CCN(Cc1nc2c(N)nc3cc(-c4cc[nH]n4)ccc3c2[nH]1)C(=O)C1CC1` [Compound 118], the EC50 at TLR7 and at TLR8 was greater than 100 µM in each case.
Regarding `Nc1nc2cc(-c3cccs3)ccc2c2[nH]c(CN3CCCC3=O)nc12` [Compound 309, 1-[(4-amino-7-thiophen-2-yl-1H-imidazo[4,5-c]quinolin-2-yl)methyl]pyrrolidin-2-one], the EC50 on TLR7 and on TLR8 was greater than 100 µM each time.
In the case of `N#Cc1ccccc1-c1ccc2c(c1)nc(N)c1nc(CN3CCCC3=O)[nH]c12` [Compound 315, 2-[4-amino-2-[(2-oxopyrrolidin-l-yl)methyl]-1H-imidazo[4,5-c]quinolin-7-yl]benzonitrile], the EC50 on TLR7 and on TLR8 was greater than 100 µM each time.
With `Nc1nc2cc(Br)ccc2c2[nH]c(CN3CC(c4ccccc4)CC3=O)nc12` (centres unmarked) [Compound 316, 1-[(4-amino-7-bromo-1H-imidazo[4,5-c]quinolin-2-yl)methyl]-4-phenylpyrrolidin-2-one], the EC50 on TLR7 and at TLR8 was greater than 100 µM in each case.
`COc1ncccc1-c1ccc2c(c1)nc(N)c1nc(CN3CCCC3=O)[nH]c12` [Compound 319, 1-[[4-amino-7-(2-methoxypyridin-3-yl)-1H-imidazo[4,5-c]quinolin-2-yl]methyl]pyrrolidin-2-one]: the 50% effective concentration (EC50) on TLR7 and on TLR8 was greater than 100 µM each time.
With `Nc1nc2cc(-c3cccnc3Cl)ccc2c2[nH]c(CN3CCCC3=O)nc12` [Compound 320, 1-[[4-amino-7-(2-chloropyridin-3-yl)-1H-imidazo[4,5-c]quinolin-2-yl]methyl]pyrrolidin-2-one], the concentration giving a half-maximal response (EC50) on TLR7 and on TLR8 was greater than 100 µM in each case.
On to `Nc1nc2cc(-c3cnccc3Cl)ccc2c2[nH]c(CN3CCCC3=O)nc12` [Compound 321, 1-[[4-amino-7-(4-chloropyridin-3-yl)-1H-imidazo[4,5-c]quinolin-2-yl]methyl]pyrrolidin-2-one], for which the concentration for a half-maximal effect (EC50) on TLR7 is 20 to 100 µM; on TLR8, greater than 100 µM.
As to `Nc1nc2cc(-c3ccc(C(F)(F)F)nc3)ccc2c2[nH]c(CN3CCCC3=O)nc12` [Compound 324, 1-[[4-amino-746-(trifluoromethyppyridin-3-yl]-1H-imidazo[4,5-c]quinolin-2-yl]methyl]pyrrolidin-2-one], the EC50 on TLR7 and at TLR8 was greater than 100 µM in each case.
Regarding `N#Cc1cncc(-c2ccc3c(c2)nc(N)c2nc(CN4CCCC4=O)[nH]c23)c1` [Compound 326, 5-[4-amino-2-[(2-oxopyrrolidin-l-yl)methyl]-1H-imidazo[4,5-c]quinolin-7-yl]pyridine-3-carbonitrile], the EC50 on TLR7 and on TLR8 was greater than 100 µM each time.
`N#Cc1ccc(-c2ccc3c(c2)nc(N)c2nc(CN4CCCC4=O)[nH]c23)cn1` [Compound 327, 5-[4-amino-2-[(2-oxopyrrolidin-l-yl)methyl]-1H-imidazo[4,5-c]quinolin-7-yl]pyridine-2-carbonitrile]: the EC50 on TLR7 and on TLR8 was greater than 100 µM throughout.
For `Nc1nc2cc(-c3cncc(Cl)c3)ccc2c2[nH]c(CN3CCCC3=O)nc12` [Compound 328, 1-[[4-amino-7-(5-chloropyridin-3-yl)-1H-imidazo[4,5-c]quinolin-2-yl]methyl]pyrrolidin-2-one], the EC50 on TLR7 and at TLR8 was greater than 100 µM throughout.
With `Nc1nc2cc(-c3ccc(F)nc3)ccc2c2[nH]c(CN3CCCC3=O)nc12` [Compound 330, 1-[[4-amino-7-(6-fluoropyridin-3-yl)-1H-imidazo[4,5-c]quinolin-2-yl]methyl]pyrrolidin-2-one], the EC50 on TLR7 and on TLR8 was greater than 100 µM throughout.
Consider `Nc1nc2cc(-c3cncc(F)c3)ccc2c2[nH]c(CN3CCCC3=O)nc12` [Compound 331, 1-[[4-amino-7-(5-fluoropyridin-3-yl)-1H-imidazo[4,5-c]quinolin-2-yl]methyl]pyrrolidin-2-one], for which the EC50 at TLR7 and at TLR8 was greater than 100 µM throughout.
Turning to `Nc1nc2cc(C3CCCCCC3)ccc2c2[nH]c(CN3CCCC3=O)nc12` [Compound 332, 1-[(4-amino-7-cycloheptyl-1H-imidazo[4,5-c]quinolin-2-yl)methyl]pyrrolidin-2-one], the EC50 on TLR7 and on TLR8 was greater than 100 µM throughout.
Regarding `Nc1nc2cc(-c3cccnc3)ccc2c2[nH]c(CN3CC(c4ccccc4)CC3=O)nc12` (centres unmarked) [Compound 333, 1-[(4-amino-7-pyridin-3-yl-1H-imidazo[4,5-c]quinolin-2-yl)methyl]-4-phenylpyrrolidin-2-one], the EC50 on TLR7 and on TLR8 was greater than 100 µM in each case.
Take `COC(=O)CCCn1c(CN2CCCC2=O)nc2c(N)nc3ccccc3c21` [Compound 335]: the EC50 at TLR7 and at TLR8 was greater than 100 µM each time.
As to `CN(C)C(=O)CCCn1c(CN2CCCC2=O)nc2c(N)nc3cc(Cl)ccc3c21` [Compound 337], the EC50 on TLR7 and on TLR8 was greater than 100 µM throughout.
Turning to `CN(C)C(=O)CCCn1c(CN2CCCC2=O)nc2c(N)nc3cc(-c4cccnc4)ccc3c21` [Compound 340], the 50% effective concentration (EC50) at TLR7 and at TLR8 was greater than 100 µM in each case.
With `COC(=O)CCCn1c(CN2CCCC2=O)nc2c(N)nc3cc(Br)ccc3c21` [Compound 341], the EC50 on TLR7 and at TLR8 was greater than 100 µM in each case.
As to `COC(=O)CCCn1c(CN2CCCC2=O)nc2c(N)nc3cc(-c4cccnc4)ccc3c21` [Compound 342], the EC50 at TLR7 and on TLR8 was greater than 100 µM each time.
Consider `Nc1nc2ccccc2c2[nH]c(CN3CCCCC3=O)nc12` [Compound 346], for which the EC50 on TLR7 and at TLR8 was greater than 100 µM each time.
Turning to `COC(=O)CCCn1c(CN2CCCCC2=O)nc2c(N)nc3ccccc3c21` [Compound 347], the EC50 at TLR7 and at TLR8 was greater than 100 µM in each case.
On to `CN(C)Cc1nc2c(N)nc3cc(-c4cc[nH]n4)ccc3c2[nH]1` [Compound 348], for which the EC50 on TLR7 and at TLR8 was greater than 100 µM each time.
For `CCN(C)Cc1nc2c(N)nc3cc(-c4cc[nH]n4)ccc3c2[nH]1` [Compound 349], the EC50 on TLR7 and at TLR8 was greater than 100 µM throughout.
